ChEMBL document CHEMBL1201862, “PubChem BioAssay data set” (2004)
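Method: 48-hour compound exposure of cells in 96-well plates, five concentrations, linear interpolation of endpoints. The concentration for 50% growth inhibition is given as GI50.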 Active and inactive are the calls of the source. Rule as the data show it: active = GI50 up to about 1.1 µM and inactive = higher. Peptide text beside a SMILES is read from it. * marks the point of attachment. Cbz = O=C(OCc1ccccc1)*; NHNH2 = NN*

Key:
Test in all cases: growth of human tumour cells (NCI), 48 h
A498 = test system: A498
SF-295 = test system: SF-295
HOP-92 = test system: HOP-92
COLO 205 = test system: COLO 205
HCT-15 = test system: HCT-15
SF-539 = test system: SF-539
OVCAR-3 = test system: OVCAR-3
DU-145 = test system: DU-145
Hs-578T = test system: Hs-578T
HOP-62 = test system: HOP-62
KM12 = test system: KM12
HT-29 = test system: HT-29
NCI-H23 = test system: NCI-H23
BT-549 = test system: BT-549
MDA-N = test system: MDA-N
T47D = test system: T47D
SN12C = test system: SN12C
UO-31 = test system: UO-31
HL-60 = test system: HL-60
CCRF-CEM = test system: CCRF-CEM

| Compound | GI50 (A498) | GI50 (SF-295) | GI50 (HOP-92) | GI50 (COLO 205) | GI50 (HCT-15) [µM] | GI50 (SF-539) | GI50 (OVCAR-3) | GI50 (DU-145) | GI50 (Hs-578T) | GI50 (HOP-62) | GI50 (KM12) | GI50 (HT-29) | GI50 (NCI-H23) | GI50 (BT-549) | GI50 (MDA-N) | GI50 (T47D) | GI50 (SN12C) | GI50 (UO-31) | GI50 (HL-60) | GI50 (CCRF-CEM) |
| --- | --- | --- | --- | --- | --- | --- | --- | --- | --- | --- | --- | --- | --- | --- | --- | --- | --- | --- | --- | --- |
| c1ccc2c(c1)Sc1ccccc1N2CCCN1c2ccccc2Sc2ccccc21 | > 100 µM (inactive) | > 100 µM (inactive) | > 100 µM (inactive) | 52.6 µM (inactive) | > 100 | > 100 µM (inactive) | 63.5 µM (inactive) | > 100 µM (inactive) | 41.2 µM (inactive) | 95.1 µM (inactive) | > 100 µM (inactive) | > 100 µM (inactive) | > 100 µM (inactive) | > 100 µM (inactive) | > 100 µM (inactive) | > 100 µM (inactive) | 91.6 µM (inactive) | > 100 µM (inactive) | – | – |
| Cc1ccc(S(=O)(=O)NC(=O)NCCC(=O)O)cc1 | – | > 100 µM (inactive) | > 100 µM (inactive) | > 100 µM (inactive) | 21.4 | > 100 µM (inactive) | – | > 100 µM (inactive) | > 100 µM (inactive) | > 100 µM (inactive) | > 100 µM (inactive) | > 100 µM (inactive) | 19.3 µM (inactive) | 25.8 µM (inactive) | > 100 µM (inactive) | > 100 µM (inactive) | > 100 µM (inactive) | > 100 µM (inactive) | > 100 µM (inactive) | > 100 µM (inactive) |
| Cn1c(=O)c2nc(CCCCC(=O)O)[nH]c2n(C)c1=O | > 100 µM (inactive) | > 100 µM (inactive) | > 100 µM (inactive) | – | > 100 | – | > 100 µM (inactive) | > 100 µM (inactive) | 68.5 µM (inactive) | > 100 µM (inactive) | > 100 µM (inactive) | > 100 µM (inactive) | > 100 µM (inactive) | > 100 µM (inactive) | > 100 µM (inactive) | > 100 µM (inactive) | > 100 µM (inactive) | > 100 µM (inactive) | – | > 100 µM (inactive) |
| CCN(CC)c1nc(N(C)C)c2ccccc2n1 | – | 33.1 µM (inactive) | 43.3 µM (inactive) | 19.4 µM (inactive) | 33.3 | 24.3 µM (inactive) | – | – | 53.3 µM (inactive) | 49.3 µM (inactive) | 31.3 µM (inactive) | 11.6 µM (inactive) | 23.2 µM (inactive) | 48.1 µM (inactive) | 16.5 µM (inactive) | 22.9 µM (inactive) | 20.9 µM (inactive) | 19.3 µM (inactive) | 41.1 µM (inactive) | – |
| O=C1NC(N2CCCCC2)=N/C1=C\c1cccs1 | – | > 100 µM (inactive) | > 100 µM (inactive) | > 100 µM (inactive) | > 100 | > 100 µM (inactive) | > 100 µM (inactive) | > 100 µM (inactive) | > 100 µM (inactive) | > 100 µM (inactive) | > 100 µM (inactive) | > 100 µM (inactive) | > 100 µM (inactive) | > 100 µM (inactive) | > 100 µM (inactive) | > 100 µM (inactive) | > 100 µM (inactive) | > 100 µM (inactive) | > 100 µM (inactive) | > 100 µM (inactive) |
| Cc1cc(C)nc(NS(=O)(=O)c2ccc(NN=c3c4ccccc4n(C)c4ccccc34)cc2)n1 | – | 44.7 µM (inactive) | 15.6 µM (inactive) | 29.7 µM (inactive) | 32.7 | 44.4 µM (inactive) | 30.2 µM (inactive) | 37 µM (inactive) | 32.4 µM (inactive) | 60.5 µM (inactive) | 52.7 µM (inactive) | 33.3 µM (inactive) | 25.6 µM (inactive) | 8.95 µM (inactive) | 22.2 µM (inactive) | 13.9 µM (inactive) | 42.8 µM (inactive) | 16.6 µM (inactive) | 28.9 µM (inactive) | 15.7 µM (inactive) |
| Nc1cc(C2CCCc3c2[nH]c2ccccc32)ccc1O (stereo not given) | > 100 µM (inactive) | 14.4 µM (inactive) | 56.8 µM (inactive) | 45.4 µM (inactive) | 55.3 | > 100 µM (inactive) | 22.3 µM (inactive) | 26 µM (inactive) | 69.8 µM (inactive) | 74.6 µM (inactive) | 20.1 µM (inactive) | 23.4 µM (inactive) | 36.5 µM (inactive) | 35.2 µM (inactive) | – | 14.3 µM (inactive) | 65.2 µM (inactive) | 10.5 µM (inactive) | 14.2 µM (inactive) | 0.76 µM (active) |
| COc1cc(C2C(Cl)C(=O)N2c2c(C)n(C)n(-c3ccccc3)c2=O)ccc1O (stereo not given) | – | 22.2 µM (inactive) | 21.3 µM (inactive) | 16.3 µM (inactive) | – | 16.3 µM (inactive) | 28.2 µM (inactive) | 29.7 µM (inactive) | – | 23.7 µM (inactive) | 17.7 µM (inactive) | 17.7 µM (inactive) | 14.7 µM (inactive) | 20.1 µM (inactive) | 15.6 µM (inactive) | 44.3 µM (inactive) | 19.1 µM (inactive) | 16.9 µM (inactive) | 23.3 µM (inactive) | 22.7 µM (inactive) |
| COC(=O)CC(NC(=O)OCc1ccccc1)C(=O)NC(CC(=O)OC)C(=O)NC(CC(=O)OC)C(=O)NC(CC(=O)OC)C(=O)NC(CC(=O)OC)C(=O)NC(CC(=O)OC)C(=O)NN (stereo not given) (Cbz-D(OMe)D(OMe)D(OMe)D(OMe)D(OMe)D(OMe)-NHNH2; configuration not given here) | – | > 100 µM (inactive) | > 100 µM (inactive) | > 100 µM (inactive) | > 100 | > 100 µM (inactive) | – | – | > 100 µM (inactive) | > 100 µM (inactive) | > 100 µM (inactive) | > 100 µM (inactive) | – | > 100 µM (inactive) | > 100 µM (inactive) | > 100 µM (inactive) | > 100 µM (inactive) | > 100 µM (inactive) | > 100 µM (inactive) | > 100 µM (inactive) |
| COc1cc(C2c3cc4c(cc3[C@@H](Nc3cccc(O)c3)C3COC(=O)[C@H]23)OCO4)cc(OC)c1O (stereo not given in full) | 1.62 µM (inactive) | 1.09 µM (active) | 1.32 µM (inactive) | 6.17 µM (inactive) | 1.93 | 1.14 µM (inactive) | 4.04 µM (inactive) | 0.197 µM (active) | – | 0.817 µM (active) | 3.31 µM (inactive) | 3.33 µM (inactive) | 1.05 µM (active) | 1.91 µM (inactive) | 2.7 µM (inactive) | 2.24 µM (inactive) | 1.55 µM (inactive) | 1.57 µM (inactive) | 0.445 µM (active) | 0.425 µM (active) |
| C[C@H](CCCOS(C)(=O)=O)[C@H]1CC[C@H]2[C@@H]3CC[C@@H]4C[C@H](OS(C)(=O)=O)CC[C@]4(C)[C@H]3CC[C@]12C | 22.3 µM (inactive) | 37.5 µM (inactive) | 0.118 µM (active) | > 100 µM (inactive) | 66.8 | 21 µM (inactive) | 21.4 µM (inactive) | 27 µM (inactive) | 24.4 µM (inactive) | 22.5 µM (inactive) | 29.2 µM (inactive) | 31.8 µM (inactive) | 16.6 µM (inactive) | 36.8 µM (inactive) | – | 24.8 µM (inactive) | 16.7 µM (inactive) | 34 µM (inactive) | – | > 100 µM (inactive) |
| COc1ccc2c(c1)CCCN1CCc3cc(OC)c(OC)cc3C21 (stereo not given) | – | 46.5 µM (inactive) | – | > 100 µM (inactive) | > 100 | 35.5 µM (inactive) | > 100 µM (inactive) | > 100 µM (inactive) | – | > 100 µM (inactive) | > 100 µM (inactive) | 47.9 µM (inactive) | – | 4.09 µM (inactive) | > 100 µM (inactive) | > 100 µM (inactive) | > 100 µM (inactive) | 25.5 µM (inactive) | 41.1 µM (inactive) | > 100 µM (inactive) |
| CC(=O)Nc1oc(C)c(C)c1S(=O)(=O)c1ccc(Cl)cc1 | > 100 µM (inactive) | 44.6 µM (inactive) | > 100 µM (inactive) | 72.8 µM (inactive) | 41.8 | 26.7 µM (inactive) | 27.5 µM (inactive) | 85.3 µM (inactive) | 33.4 µM (inactive) | – | 39.4 µM (inactive) | 49 µM (inactive) | 43.3 µM (inactive) | 29.2 µM (inactive) | – | 52.7 µM (inactive) | – | 39 µM (inactive) | 97.7 µM (inactive) | 79.8 µM (inactive) |
| CCOC(OCC)C(CCc1ccccc1)c1c(N)nc(N)[nH]c1=O (stereo not given) | > 100 µM (inactive) | 53.1 µM (inactive) | 29.6 µM (inactive) | 17.4 µM (inactive) | 68.7 | > 100 µM (inactive) | 62.4 µM (inactive) | 83.9 µM (inactive) | > 100 µM (inactive) | > 100 µM (inactive) | 66.4 µM (inactive) | 55.1 µM (inactive) | 79.8 µM (inactive) | 86.9 µM (inactive) | – | 68.7 µM (inactive) | 56.8 µM (inactive) | 34.8 µM (inactive) | 25.2 µM (inactive) | 53.6 µM (inactive) |
| CCOC(=O)CC(=O)Nc1cccc2sc3ncccc3c(=O)c12 | – | 43.5 µM (inactive) | – | 68.2 µM (inactive) | 38.4 | 41.7 µM (inactive) | 34.4 µM (inactive) | 84.9 µM (inactive) | 19.1 µM (inactive) | 33 µM (inactive) | 77.4 µM (inactive) | 38.8 µM (inactive) | 32 µM (inactive) | 43.4 µM (inactive) | 76.7 µM (inactive) | 3.95 µM (inactive) | 51.8 µM (inactive) | 25.7 µM (inactive) | – | 10.8 µM (inactive) |
| COC(=O)[C@@H]1Cc2ccc(OC)c(c2)OCCC(=O)N1 | – | > 100 µM (inactive) | – | > 100 µM (inactive) | > 100 | – | > 100 µM (inactive) | > 100 µM (inactive) | > 100 µM (inactive) | > 100 µM (inactive) | > 100 µM (inactive) | > 100 µM (inactive) | > 100 µM (inactive) | > 100 µM (inactive) | > 100 µM (inactive) | > 100 µM (inactive) | – | > 100 µM (inactive) | – | > 100 µM (inactive) |
